The text below walks through data of US20250082656A1, “DOSAGE REGIMENS FOR TREATMENT OF DENGUE INFECTION” (Atea Pharmaceuticals, Inc., priority 2022, published 2025).

Series [1] relates to erythroid (E) human bone marrow progenitor cells. Put plainly: Bone marrow progenitor cell assay, erythroid (E). Conditions: E cell assay, 14 days, colonies counted.
Series [2] concerns granulocyte macrophage (GM) human bone marrow progenitor cells. As to the kind of experiment: Bone marrow progenitor cell assay, granulocyte macrophage (GM). Conditions: GM cell assay, 14 days, colonies counted.
Series [3] concerns the target T1, DENV1 NS5 (Dengue virus type 1, UniProt P17763). As to the kind of experiment: Nucleotide analogue incorporation / discrimination assay, DENV1 NS5. The series is classed as biochemical. The note with it: GTP for AT-9010 and AT-9002, UTP for SOF-TP. Here is the method:
(§1) The chain-terminating efficiency of Compound 5 was measured in competitive nucleotide incorporation assays using all four DENV serotypes. […] In comparison, sofosbuvir triphosphate is incorporated into the RNA less than 1 time for every 100 UTP (native uridine triphosphate) incorporations.
(§2) Measurements and quantitations were as in FIG. 19B.
(§3) DENV NS5 was pre-incubated with the annealed P10/T20 RNA in an assembly buffer containing 20 mM HEPES pH 7.5, 10% glycerol, 5 mM MgCl2, and 5 mM DTT for 10 min at 30° C. to create an active RNA elongation complex.
(§4) Reactions were started by adding AT-9010 with either all four NTPs or UTP, ATP, and CTP only.
(§5) Single nucleotide incorporation was tested as follows. Reactions were started by adding the corresponding NTP or analogue. Final concentrations were 1 μM NS5, 0.25 μM P10/T20, 100 μM NTP or analogue in a final buffer containing 20 mM HEPES pH 7.5, 15% glycerol, 5 mM MgCl2, and 5 mM DTT.
(§6) Reactions were quenched at the designated time points in 3× volume FBD stop solution (formamide, 10 mM EDTA) and analyzed on 20% acrylamide-bisacrylamide (19:1) […] sequencing gels. RNA products were visualized using a Typhoon FluorImager then analyzed and quantified using ImageQuant software.

The target in series [4] is T2, DENV2 NS5 (Dengue virus type 2, UniProt P14340). Put plainly: Nucleotide analogue incorporation / discrimination assay, DENV2 NS5. Conditions: DENV2; GTP for AT-9010 and AT-9002, UTP for SOF-TP. The series is classed as biochemical. Here is the method: as §1
The experimental procedure is provided in Example 10.
as §2
DENV NS5 was preincubated with the annealed P10/T20 RNA in an assembly buffer containing 20 mM HEPES pH 7.5, 10% glycerol, 5 mM MgCl2 and 5 mM DTT for 10 min at 30° C. to create an active RNA elongation complex. Reactions were started by adding AT-9010 with either all four NTPs, or UTP, ATP and CTP only. […] Reactions were quenched at indicated timepoints in 2× volume FBD stop solution (formamide, 10 mM EDTA) and analysed on 20% acrylamide:bisacrylamide (19:1), […] sequencing gels. RNA products were visualized using a Typhoon FluorImager and analyzed using ImageQuant software.
as §3, §4, §5, §6

The target of series [5] is T3, DENV3 NS5 (Dengue virus type 3, UniProt Q6YMS4). Put plainly: Nucleotide analogue incorporation / discrimination assay, DENV3 NS5. The series is classed as biochemical. The note with it: GTP for AT-9010 and AT-9002, UTP for SOF-TP. Here is the method: as §1, §2, §3, §4, §5, §6
Series [6] concerns the target T4, DENV4 NS5 (Dengue virus type 4, UniProt P09866). As to the kind of experiment: Nucleotide analogue incorporation / discrimination assay, DENV4 NS5. Format: biochemical. The note with it: GTP for AT-9010 and AT-9002, UTP for SOF-TP. Here is the method: as §1
The nature of regular inserted Watson-Crick nucleotides is indicated in the right of the gel. […] Quantification of band-products greater in size than the G/AT (+5) band relative to the G/AT (+5) band were measured using a Typhoon FluorImager, and allowed to calculate the discrimination value. The incorporation rates for […] and AT9002 are compared to that of GTP, and to that of UTP in the case of SOF-TP.
as §2, §3, §4, §5, §6

In series [7] the test system is NS5 RNA dependent RNA polymerase (RdRp). Put plainly: Competitive nucleotide incorporation assays, all four DENV serotypes (summary). The series is classed as biochemical, Dengue virus. Conditions: versus native uridine triphosphate. Here is the method:
As described in Example 10 and shown in FIG. 1, the active metabolite of Compound 2 or Compound 1 (Compound 5) acts as a GTP analog and is incorporated into RNA by the NS5 RNA dependent RNA polymerase (RdRp), immediately terminating synthesis.
as §1

Series [8] addresses T1, DENV1 NS5. As to the kind of experiment: Thermal shift assay, DENV1 NS5. The note with it: read-out: ΔTM.
For series [9], the target named is T2, DENV2 NS5. Put plainly: Thermal shift assay, DENV2 NS5. Conditions: read-out: ΔTM.
Series [10] deals with T3, DENV3 NS5. As to the kind of experiment: Thermal shift assay, DENV3 NS5. The note with it: read-out: ΔTM.
Series [11] concerns the target T4, DENV4 NS5. As to the kind of experiment: Thermal shift assay, DENV4 NS5. The note with it: read-out: ΔTM.
In the next series the test system is DENV1 RdRp domain. Put plainly: Thermal shift assay, DENV1 RdRp domain. Conditions: RdRp domain DENV1, 100 μM compound.
In a further series the target is DENV2 RdRp domain (Dengue virus type 2, UniProt P14340). As to the kind of experiment: Thermal shift assay, DENV2 RdRp domain. Conditions: read-out: ΔTM.
The subject of another series is DENV3 RdRp domain. Put plainly: Thermal shift assay, DENV3 RdRp domain. The note with it: RdRp domain DENV3, 100 μM compound.
A further series deals with DENV4 RdRp domain. As to the kind of experiment: Thermal shift assay, DENV4 RdRp domain. The note with it: RdRp domain DENV4, 100 μM compound.
The next series has as its target DENV1 MTase domain (Dengue virus type 1, UniProt P17763). Put plainly: Thermal shift assay, DENV1 MTase domain. The note with it: read-out: ΔTM.
The target in the next series is DENV2 MTase domain (Dengue virus type 2, UniProt P14340). As to the kind of experiment: Thermal shift assay, DENV2 MTase domain. The note with it: read-out: ΔTM.
The target of another series is DENV3 MTase domain (Dengue virus type 3, UniProt Q6YMS4). Put plainly: Thermal shift assay, DENV3 MTase domain. The note with it: read-out: ΔTM.
Another series has as its target DENV4 MTase domain (Dengue virus type 4, UniProt P09866). Put plainly: Thermal shift assay, DENV4 MTase domain. Conditions: read-out: ΔTM.
Series [12] deals with human induced pluripotent stem cell (iPS) cardiomyocytes. Put plainly: Cardiomyocyte cytotoxicity assay (CellTiter Glo). Conditions: iPS cardiomyocytes, 3 days. (In general: In ATP-based viability assays light output follows the ATP content of the culture.)

Bounds are passed on as bounds.

T3 sequence (Q6YMS4 2491-3390): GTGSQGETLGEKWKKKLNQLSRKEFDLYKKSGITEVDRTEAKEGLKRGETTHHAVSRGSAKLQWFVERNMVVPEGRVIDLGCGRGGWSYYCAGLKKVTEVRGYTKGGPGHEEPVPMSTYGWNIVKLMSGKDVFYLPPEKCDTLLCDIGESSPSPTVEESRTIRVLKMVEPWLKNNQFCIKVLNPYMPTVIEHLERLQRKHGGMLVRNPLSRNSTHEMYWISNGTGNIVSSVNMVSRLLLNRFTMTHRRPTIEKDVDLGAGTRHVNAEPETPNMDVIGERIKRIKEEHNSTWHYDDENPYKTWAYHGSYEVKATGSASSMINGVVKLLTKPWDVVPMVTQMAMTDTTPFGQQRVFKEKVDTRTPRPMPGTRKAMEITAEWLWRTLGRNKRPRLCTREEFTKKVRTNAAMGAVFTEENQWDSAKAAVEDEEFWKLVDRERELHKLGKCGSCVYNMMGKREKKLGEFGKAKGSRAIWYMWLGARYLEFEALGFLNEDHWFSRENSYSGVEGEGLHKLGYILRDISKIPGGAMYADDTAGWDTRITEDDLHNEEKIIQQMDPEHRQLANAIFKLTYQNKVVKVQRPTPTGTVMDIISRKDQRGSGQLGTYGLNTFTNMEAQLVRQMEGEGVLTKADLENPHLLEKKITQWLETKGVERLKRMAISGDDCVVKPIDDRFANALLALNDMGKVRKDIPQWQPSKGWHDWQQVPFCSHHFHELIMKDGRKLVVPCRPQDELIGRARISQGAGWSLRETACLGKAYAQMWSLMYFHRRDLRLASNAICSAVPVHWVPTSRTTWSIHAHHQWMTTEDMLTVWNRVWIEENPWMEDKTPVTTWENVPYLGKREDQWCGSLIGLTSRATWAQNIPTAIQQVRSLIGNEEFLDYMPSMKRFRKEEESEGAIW
T4 sequence (P09866 2488-3387): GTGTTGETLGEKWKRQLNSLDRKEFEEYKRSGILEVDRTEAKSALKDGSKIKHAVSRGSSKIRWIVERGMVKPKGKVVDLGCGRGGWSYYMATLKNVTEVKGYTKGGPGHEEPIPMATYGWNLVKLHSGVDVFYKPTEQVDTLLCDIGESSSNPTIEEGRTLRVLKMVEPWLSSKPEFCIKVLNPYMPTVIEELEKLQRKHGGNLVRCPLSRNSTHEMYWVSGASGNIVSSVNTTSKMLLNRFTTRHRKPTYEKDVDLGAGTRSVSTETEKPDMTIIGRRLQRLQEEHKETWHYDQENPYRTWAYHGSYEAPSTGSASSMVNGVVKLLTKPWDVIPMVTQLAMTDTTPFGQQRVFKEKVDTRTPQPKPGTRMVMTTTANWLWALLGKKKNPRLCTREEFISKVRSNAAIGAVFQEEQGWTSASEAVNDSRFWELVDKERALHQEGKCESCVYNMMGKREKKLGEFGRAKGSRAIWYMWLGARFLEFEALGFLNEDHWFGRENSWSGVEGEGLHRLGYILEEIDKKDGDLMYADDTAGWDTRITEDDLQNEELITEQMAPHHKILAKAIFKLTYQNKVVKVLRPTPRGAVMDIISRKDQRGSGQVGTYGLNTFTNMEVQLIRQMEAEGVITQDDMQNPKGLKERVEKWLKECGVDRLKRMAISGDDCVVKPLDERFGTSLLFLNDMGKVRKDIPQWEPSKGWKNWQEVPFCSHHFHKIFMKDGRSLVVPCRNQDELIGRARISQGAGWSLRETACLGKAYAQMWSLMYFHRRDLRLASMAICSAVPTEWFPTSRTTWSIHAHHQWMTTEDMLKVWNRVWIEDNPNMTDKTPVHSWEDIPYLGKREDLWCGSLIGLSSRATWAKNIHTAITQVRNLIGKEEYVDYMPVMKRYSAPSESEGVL
T1 sequence (P17763 2494-3392): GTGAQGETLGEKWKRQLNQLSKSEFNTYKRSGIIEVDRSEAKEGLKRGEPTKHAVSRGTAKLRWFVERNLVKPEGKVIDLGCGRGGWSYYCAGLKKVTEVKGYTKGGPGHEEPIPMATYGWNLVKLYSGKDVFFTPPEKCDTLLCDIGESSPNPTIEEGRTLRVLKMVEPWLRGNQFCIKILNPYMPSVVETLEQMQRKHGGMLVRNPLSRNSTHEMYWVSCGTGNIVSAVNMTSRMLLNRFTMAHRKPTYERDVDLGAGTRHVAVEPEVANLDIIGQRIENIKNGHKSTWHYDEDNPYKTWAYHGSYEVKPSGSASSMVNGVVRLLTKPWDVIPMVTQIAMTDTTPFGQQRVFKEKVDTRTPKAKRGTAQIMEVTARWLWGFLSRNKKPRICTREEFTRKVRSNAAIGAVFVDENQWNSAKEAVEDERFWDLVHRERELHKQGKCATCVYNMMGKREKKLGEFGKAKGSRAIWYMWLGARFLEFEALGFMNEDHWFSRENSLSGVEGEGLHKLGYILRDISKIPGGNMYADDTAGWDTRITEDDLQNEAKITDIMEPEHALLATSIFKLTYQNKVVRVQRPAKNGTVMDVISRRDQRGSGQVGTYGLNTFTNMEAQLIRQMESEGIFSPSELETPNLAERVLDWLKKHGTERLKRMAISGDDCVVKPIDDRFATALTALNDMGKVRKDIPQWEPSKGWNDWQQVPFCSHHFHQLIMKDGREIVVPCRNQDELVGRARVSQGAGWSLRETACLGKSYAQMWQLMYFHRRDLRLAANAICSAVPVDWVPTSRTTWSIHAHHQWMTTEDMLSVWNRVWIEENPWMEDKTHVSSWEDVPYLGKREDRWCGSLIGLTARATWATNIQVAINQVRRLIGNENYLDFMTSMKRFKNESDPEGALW
Chain of DENV1 MTase domain (P17763 2495-2756): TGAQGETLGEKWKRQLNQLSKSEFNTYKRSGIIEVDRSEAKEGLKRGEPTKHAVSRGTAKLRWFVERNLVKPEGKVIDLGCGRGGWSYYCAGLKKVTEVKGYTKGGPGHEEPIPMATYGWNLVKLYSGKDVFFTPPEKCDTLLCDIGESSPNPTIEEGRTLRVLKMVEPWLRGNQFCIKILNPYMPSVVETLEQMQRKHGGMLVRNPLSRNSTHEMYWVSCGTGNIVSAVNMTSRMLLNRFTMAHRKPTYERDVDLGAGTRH
Chain of DENV3 MTase domain (Q6YMS4 2492-2753): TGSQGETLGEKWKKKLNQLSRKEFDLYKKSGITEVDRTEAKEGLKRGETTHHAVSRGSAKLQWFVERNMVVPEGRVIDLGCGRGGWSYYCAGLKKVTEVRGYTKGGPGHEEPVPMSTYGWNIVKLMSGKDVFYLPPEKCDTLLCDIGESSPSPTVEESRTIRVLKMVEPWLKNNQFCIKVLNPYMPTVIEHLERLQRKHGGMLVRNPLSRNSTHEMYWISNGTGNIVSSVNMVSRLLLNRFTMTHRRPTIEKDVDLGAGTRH
Chain of DENV4 MTase domain (P09866 2489-2751): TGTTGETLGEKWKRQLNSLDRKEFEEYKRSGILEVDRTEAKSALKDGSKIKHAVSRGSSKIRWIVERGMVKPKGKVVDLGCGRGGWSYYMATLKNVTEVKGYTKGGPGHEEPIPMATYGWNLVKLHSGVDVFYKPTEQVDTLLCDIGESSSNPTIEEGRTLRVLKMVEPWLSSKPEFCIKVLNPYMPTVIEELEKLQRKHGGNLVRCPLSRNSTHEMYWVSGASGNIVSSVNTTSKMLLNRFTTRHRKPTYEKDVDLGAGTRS

With `Cc1cn([C@H]2C[C@H](N=[N+]=[N-])[C@@H](CO)O2)c(=O)[nH]c1=O` [AZT, reference compound], the results for the CC50 in [1] and in series [2] were 3 µM and 2 µM, respectively.
Regarding sofosbuvir triphosphate [SOF-TP], the “Preference (discrimination) native nucleotide > analogue” value at DENV1 NS5 [3], on DENV2 NS5 [4], at DENV3 NS5 [5] and on DENV4 NS5 [6] was greater than 100 in each case. In series [7], the “incorporations into the RNA for every 100 UTP incorporations” value is “less than 1”.
As for `C[C@@]1(O)[C@H](O)[C@@H](COP(=O)(O)OP(=O)(O)OP(=O)(O)O)O[C@H]1n1cnc2c(=O)[nH]c(N)nc21` [AT-9002, 2′-methylguanosine triphosphate], the “Preference (discrimination) native nucleotide > analogue” value on DENV1 NS5 [3] is 19.4 ± 2.8; on DENV2 NS5 [4] it was 18.2 ± 0.2; on DENV3 NS5 [5] it was 17.5 ± 1.5; at DENV4 NS5 [6], 41.5 ± 7.3.
Regarding `Nc1nc2c(ncn2[C@@H]2O[C@H](COP(=O)(O)OP(=O)(O)OP(=O)(O)O)[C@@H](O)[C@H]2O)c(=O)[nH]1` [GTP, guanosine triphosphate], the ΔTm at 100 µM was determined as 5.8 ± 0.1 °C on DENV1 NS5 [8]; 5.7 ± 0.1 °C at DENV2 NS5 [9]; 4.8 ± 0.1 °C at DENV3 NS5 [10]; 3.9 ± 0.1 °C at DENV4 NS5 [11]; 2.4 ± 0.1 °C at DENV2 RdRp domain; 4.9 ± 0.1 °C at DENV1 MTase domain. Also, the values for the ΔTm at 100 µM on DENV2 MTase domain, on DENV3 MTase domain and on DENV4 MTase domain were 5.7 ± 0.1 °C, 4.1 ± 0.1 °C and 4 ± 0.1 °C, respectively. Moreover, the ΔTM with DENV1 RdRp domain is 4.5±0.2 °C; in the series on DENV3 RdRp domain, 2.2 ± 0.1 °C; in the series with DENV4 RdRp domain, 3.3 ± 0.1 °C.
As for `COc1cc2nc(N3CCN(C(=O)C4COc5ccccc5O4)CC3)nc(N)c2cc1OC` (stereo not drawn) [doxazosin, reference compound], in series [12], the CC50 is 7 µM.
In the case of `Nc1ncnc2c1ncn2[C@@H]1O[C@H](C[C@@H](N)CC[C@H](N)C(=O)O)[C@@H](O)[C@H]1O` [Sinefungin, sinefungin], the ΔTm at 100 µM at DENV1 NS5 [8] is 1.2 ± 0.1 °C; on DENV2 NS5 [9] it was 1.4 ± 0.1 °C; at DENV3 NS5 [10], 1.8 ± 0.1 °C; at DENV4 NS5 [11] it was 1.4 ± 0.1 °C; on DENV2 RdRp domain, -0.8 ± 0.1 °C; on DENV1 MTase domain, 1.9 ± 0.1 °C. Further, the values for the ΔTm at 100 µM on DENV2 MTase domain, on DENV3 MTase domain and at DENV4 MTase domain were 2.9 ± 0.1 °C, 2.1 ± 0.1 °C and 2.8 ± 0.1 °C, respectively.

One may read the CC50 as the concentration at which the toxic effect on the cells reaches its halfway point. A lower CC50 goes with greater toxicity to the cells. A word on the ΔTm: it is the change in melting temperature against a reference sample.
